# Results as given in patent CN107801692A, “一种氯胺酮诱导精神分裂症动物模型及其机制研究” (Kunming Medical University, priority 2017, dated 2018).
# How the values were obtained:
# [1] = test system: mice (小鼠); experiment: Open field test (旷场实验), hyperlocomotion; assay type: in vivo, Kunming mouse; conditions: medium and large dose (50, 100 mg/kg), i.p., single administration (day 1); P<0.01
# [2] = test system: mice (小鼠); experiment: Stereotyped behaviour (刻板行为); assay type: in vivo, Kunming mouse; conditions: medium and large dose (50, 100 mg/kg), i.p., P<0.01
# [3] = test system: mice (小鼠); experiment: Suspension test (悬吊实验), limb weakness; assay type: in vivo, Kunming mouse; conditions: i.p., single administration (day 1)
# [4] = test system: mice (小鼠); experiment: Pole climbing test (爬杆实验), ataxia; assay type: in vivo, Kunming mouse; conditions: medium and large dose (50, 100 mg/kg), i.p., once daily for 7 days; P<0.01
# [5] = test system: mice (小鼠); experiment: Y-maze test (Y型迷宫实验), learning and memory; assay type: in vivo, Kunming mouse; conditions: medium and large dose (50, 100 mg/kg), i.p., once daily for 7 days; P<0.01
# [6] = test system: mice (小鼠); experiment: Schizophrenia-like symptoms overall (behavioural tests together); assay type: in vivo, Kunming mouse; conditions: i.p.
# [7] = test system: SOD; experiment: Serum SOD determination; assay type: in vivo, Kunming mouse; conditions: 25, 50, 100 mg/kg, i.p., once daily for 7 days; with increasing dose
# [8] = test system: SOD; experiment: Brain tissue SOD determination; assay type: in vivo, Kunming mouse; conditions: 25, 50, 100 mg/kg, i.p., once daily for 7 days; with increasing dose
# [9] = test system: NOX4 protein (NOX4蛋白); experiment: NOX4 protein expression (immunohistochemistry); assay type: in vivo, Kunming mouse; conditions: i.p.
# [10] = test system: depressed patients (抑郁患者); conditions: 0.5 mg/kg; Liebrenz et al.; cited from earlier work
# [11] = test system: rats (大鼠); conditions: repeated injection; Trujillo et al.; cited from earlier work
# [12] = 25, 50, 100 mg/kg, single or repeated administration
smiles,measurement,setting,value
CNC1(c2ccccc2Cl)CCCCC1=O (stereo not drawn) [氯胺酮],hyperlocomotion,[1],明显的运动亢进
same,stereotyped behaviour,[2]; once daily for 7 days,刻板行为增加
same,stereotyped behaviour,[2]; single administration (day 1),刻板行为
same,limb weakness,"[3]; medium and large dose (50, 100 mg/kg), P<0.01",四肢无力
same,limb weakness,"[3]; small dose 25 mg/kg, P<0.05",产生四肢无力
same,ataxia,[4],共济失调现象
same,learning and memory ability,[5],学习记忆能力下降
same,schizophrenia-like symptoms,[6]; [12],均可诱导小鼠产生类似精神分裂症的症状
same,"schizophrenia-like symptoms, dose dependence",[6]; [12],具有一定的剂量依赖趋势
same,stability of part of the symptoms,[6]; after 7 days of repeated administration,部分症状具有更好的稳定性
same,schizophrenia-like symptoms,[6]; large dose 100 mg/kg,更为明显
same,"serum SOD activity, dose trend",[7],逐渐降低
same,"brain tissue SOD activity, dose trend",[8],逐渐降低
same,"NOX4 protein expression, dose dependence","[9]; 25, 50, 100 mg/kg",有一定的剂量依赖趋势
same,"NOX4 protein expression, pairwise comparison among dose groups","[9]; 25, 50, 100 mg/kg, P<0.01",具有显著性差异
same,NOX4 protein expression,"[9]; different doses of ketamine (25, 50, 100 mg/kg), P<0.01",显著增加
same,symptoms of depressed patients,[10],显著改善
same,activity of rats,[11],活动增多
